In patent US9708325B2, “Sulfonimidoylpurinone compounds and derivatives for the treatment and prophylaxis of virus infection” (Hoffmann-La Roche Inc., priority 2015, dated 2017):
Where two headings read alike, the source gives them in different places.

Experiments:
human TLR7 = human TLR7 (Homo sapiens (Human), UniProt Q9NYK1); assay: HEK-Blue-hTLR7 cells assay (SEAP reporter); type: cell-based; conditions: 20 hrs, read-out: HEK-Blue-hTLR7 (EC50 (μM))
Procedure, shortened: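 HEK-Blue cells stably carrying human TLR7 and an NF-κB-driven SEAP reporter, preincubated 24 h, then exposed to serially diluted compound (1% DMSO final) for 20 h at 37 °C. Supernatant SEAP measured with QUANTI-Blue substrate, 2 h at 37 °C, absorbance read at 620–655 nm.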

hERG channel = hERG channel (Homo sapiens (Human), UniProt Q12809); assay: hERG channel inhibition assay (patch-clamp, CHOhERG cells); type: cell-based
Protocol: The hERG K^+ channels were cloned in humans and stably expressed in a CHO (Chinese hamster ovary) cell line. CHOhERG cells were used for patch-clamp (voltage-clamp, whole-cell) experiments. Cells were stimulated by a voltage pattern to activate hERG channels and conduct IKhERG currents (rapid delayed outward rectifier potassium current of the hERG channel). […] Thereafter, the test compound was added to the preparation at increasing concentrations. For each concentration, an attempt was made to reach a steady-state effect, usually, this was achieved within 3-10 min at which time the next highest concentration was applied. The amplitude and kinetics of IKhERG are recorded in each concentration of the drug which were compared to the control values (taken as 100%). (references: Redfern W S, Carlsson L, Davis A S, Lynch W G, MacKenzie I, Palethorpe S, Siegl P K, Strang I, Sullivan A T, Wallis R, Camm A J, Hammond T G. 2003; Relationships between preclinical cardiac electrophysiology, clinical QT interval prolongation and torsade de pointes for a broad range of drugs: evidence for a provisional safety margin in drug development. Cardiovasc. Res. 58:32-45, Sanguinetti M C, Tristani-Firouzi M. 2006; hERG potassium channels and cardiac arrhythmia. Nature 440:463-469, Webster R, Leishman D, Walker D. 2002; Towards a drug concentration effect relationship for QT prolongation and torsades de pointes. Curr. Opin. Drug Discov. Devel. 5:116-26).

[1] = human, CHO cells stably expressing hERG, read-out: hERG IC20

Chain of hERG channel (Q12809 whole entry): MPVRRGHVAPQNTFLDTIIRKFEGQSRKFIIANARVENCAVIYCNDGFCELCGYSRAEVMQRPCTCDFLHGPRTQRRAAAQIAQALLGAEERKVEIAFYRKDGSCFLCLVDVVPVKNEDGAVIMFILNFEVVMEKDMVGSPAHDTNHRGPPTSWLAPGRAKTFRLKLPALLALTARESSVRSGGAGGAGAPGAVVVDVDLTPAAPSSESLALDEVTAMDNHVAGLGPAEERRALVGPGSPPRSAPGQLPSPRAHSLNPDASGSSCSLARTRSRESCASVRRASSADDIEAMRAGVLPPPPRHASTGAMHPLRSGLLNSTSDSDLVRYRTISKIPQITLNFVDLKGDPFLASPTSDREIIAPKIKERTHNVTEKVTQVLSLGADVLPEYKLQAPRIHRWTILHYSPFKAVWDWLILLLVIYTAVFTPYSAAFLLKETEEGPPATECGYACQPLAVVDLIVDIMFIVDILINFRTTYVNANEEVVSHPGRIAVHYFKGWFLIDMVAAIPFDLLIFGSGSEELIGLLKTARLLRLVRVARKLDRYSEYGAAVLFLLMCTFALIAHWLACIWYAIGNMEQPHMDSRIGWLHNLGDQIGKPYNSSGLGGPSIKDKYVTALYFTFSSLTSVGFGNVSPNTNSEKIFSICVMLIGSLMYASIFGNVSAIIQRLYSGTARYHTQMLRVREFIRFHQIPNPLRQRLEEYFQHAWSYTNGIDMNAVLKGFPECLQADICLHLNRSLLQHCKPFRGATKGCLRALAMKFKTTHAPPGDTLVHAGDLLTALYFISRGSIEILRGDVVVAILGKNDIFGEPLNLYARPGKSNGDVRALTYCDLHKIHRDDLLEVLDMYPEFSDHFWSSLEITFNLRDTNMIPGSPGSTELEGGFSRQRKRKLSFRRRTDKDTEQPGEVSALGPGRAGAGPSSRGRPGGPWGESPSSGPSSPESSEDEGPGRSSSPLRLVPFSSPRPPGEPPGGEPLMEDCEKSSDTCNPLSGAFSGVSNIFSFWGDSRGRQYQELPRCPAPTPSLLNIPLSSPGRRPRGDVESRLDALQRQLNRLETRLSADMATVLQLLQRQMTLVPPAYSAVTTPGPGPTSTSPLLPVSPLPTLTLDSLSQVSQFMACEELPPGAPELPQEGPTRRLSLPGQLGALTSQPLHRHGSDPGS
Chain of human TLR7 (Q9NYK1 27-1049): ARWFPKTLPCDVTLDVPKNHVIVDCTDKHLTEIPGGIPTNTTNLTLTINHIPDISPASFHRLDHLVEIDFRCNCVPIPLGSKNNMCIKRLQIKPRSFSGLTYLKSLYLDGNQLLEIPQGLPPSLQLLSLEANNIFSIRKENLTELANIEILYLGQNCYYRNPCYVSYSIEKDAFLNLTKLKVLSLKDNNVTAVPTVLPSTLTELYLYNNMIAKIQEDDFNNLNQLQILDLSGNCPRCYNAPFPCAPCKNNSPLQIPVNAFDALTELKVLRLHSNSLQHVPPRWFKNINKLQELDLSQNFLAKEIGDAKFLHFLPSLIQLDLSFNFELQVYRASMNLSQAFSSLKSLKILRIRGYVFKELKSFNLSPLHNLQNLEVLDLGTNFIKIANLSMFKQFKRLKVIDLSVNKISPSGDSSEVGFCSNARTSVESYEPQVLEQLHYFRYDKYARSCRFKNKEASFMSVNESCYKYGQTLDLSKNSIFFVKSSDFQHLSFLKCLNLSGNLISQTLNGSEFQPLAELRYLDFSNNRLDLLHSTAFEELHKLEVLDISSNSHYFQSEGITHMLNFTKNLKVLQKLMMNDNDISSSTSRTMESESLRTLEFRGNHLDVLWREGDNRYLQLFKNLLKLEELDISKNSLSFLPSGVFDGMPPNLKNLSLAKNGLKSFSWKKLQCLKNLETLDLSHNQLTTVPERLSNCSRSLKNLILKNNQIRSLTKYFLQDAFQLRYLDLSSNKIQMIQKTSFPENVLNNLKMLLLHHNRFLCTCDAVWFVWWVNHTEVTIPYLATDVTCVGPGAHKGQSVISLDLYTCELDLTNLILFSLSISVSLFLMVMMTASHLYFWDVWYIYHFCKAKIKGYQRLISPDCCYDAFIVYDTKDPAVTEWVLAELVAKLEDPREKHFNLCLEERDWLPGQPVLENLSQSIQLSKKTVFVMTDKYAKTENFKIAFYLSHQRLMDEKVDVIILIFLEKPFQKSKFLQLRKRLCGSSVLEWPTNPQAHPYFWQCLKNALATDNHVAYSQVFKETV

SMILES	EC50 (human TLR7) [µM]	Safety ratio (hERG IC20/EC50) (hERG channel)	IC20 (hERG channel; read-out: hERG IC20) [µM]	IC20 (hERG channel; [1]) [µM]	IC50 (hERG channel; read-out: hERG IC50) [µM]	IC50 (hERG channel) [µM]	IC20 (hERG channel; human) [µM]
CCCS(=N)(=O)c1nc(N)c2[nH]c(=O)n(Cc3ccccc3)c2n1 (single isomer, unassigned) [Example 4-A, 6-Amino-9-benzyl-2-(propylsulfonimidoyl)-7H-purin-8-one]	0.067	>149	> 10				
CCCS(=N)(=O)c1nc(N)c2[nH]c(=O)n(Cc3ccccc3)c2n1 (single isomer, unassigned) [Example 4-B, 6-Amino-9-benzyl-2-(propylsulfonimidoyl)-7H-purin-8-one]		>116	> 10				
CCCS(=N)(=O)c1nc(N)c2[nH]c(=O)n(Cc3ccc(C)cc3)c2n1 (single isomer, unassigned) [Example 29-A, 6-Amino-2-(propylsulfonimidoyl)-9-(p-tolylmethyl)-7H-purin-8-one]		>526					
CCS(=N)(=O)c1nc(N)c2[nH]c(=O)n(Cc3ccc(C)cc3)c2n1 (single isomer, unassigned) [Example 71-A, 6-Amino-2-(ethylsulfonimidoyl)-9-(p-tolylmethyl)-7H-purin-8-one]		>75					
CCCS(=N)(=O)c1nc(N)c2[nH]c(=O)n(Cc3ccccc3)c2n1 (centres unmarked) [Example 4, 6-Amino-9-benzyl-2-(propylsulfonimidoyl)-7H-purin-8-one]	0.065	>154		> 10	> 20		
CCCS(=N)(=O)c1nc(N)c2[nH]c(=O)n(Cc3ccc(Cl)cc3)c2n1 (centres unmarked) [Example 9, 6-Amino-9-[(4-chlorophenyl)methyl]-2-(propylsulfonimidoyl)-7H-purin-8-one]	0.012	>833		> 10	> 20		
CCCS(=N)(=O)c1nc(N)c2[nH]c(=O)n(Cc3ccc(F)c(F)c3)c2n1 (centres unmarked) [Example 27, 6-Amino-9-(3,4-difluorophenylmethyl)-2-(propylsulfonimidoyl)-7H-purin-8-one]	0.036	>278		> 10	> 20		
CCCS(=N)(=O)c1nc(N)c2[nH]c(=O)n(Cc3ccc(C)nc3)c2n1 (centres unmarked) [Example 34, 6-Amino-9-[(6-methyl-3-pyridyl)methyl]-2-(propylsulfonimidoyl)-7H-purin-8-one]	0.03					> 20	> 10
CCCS(=N)(=O)c1nc(N)c2[nH]c(=O)n(Cc3ccc(C(=O)O)cc3)c2n1 (centres unmarked) [Example 39, 4-[[6-Amino-8-oxo-2-(propylsulfonimidoyl)-7H-purin-9-yl]methyl]benzoic acid]	0.17	>59		> 10	> 20		
